Reference: paper PMC3849007 (Journal of Experimental & Clinical Cancer Research : CR, 2013)
pIC50: −log10 of the molar value.

Tests used:
[1] = biological target: T1, human recombinant β2 adrenergic receptor (Homo sapiens, UniProt P07550); experiment: β2-adrenergic receptor binding assay (CHO expressing cells)
T1 construct: expressed in transfected cells; host or cells: CHO
Experimental: (§1) For hERG study, HEK293 cells were cultured (1–7 days) in DMEM/GlutaMax-1 + 10% FBS and were plated on collagen-coated dishes (about 2×10^4 cells/dish). The cell was held at -80 mV. A 50-millisecond pulse to -40 mV was delivered to measure the leaking currents, which were subtracted from the tail currents online. […] This paradigm was delivered once every 5 seconds to monitor the current amplitude. After the current amplitude stabilized, the test compound was delivered to the extracellular medium by a rapid solution changer perfusion system. During perfusion, the cell was repetitively stimulated with the protocol described above, and the current amplitude was continuously monitored. Data were acquired and analyzed by using pClamp (Axon Instruments), and Excel (Microsoft), and are reported as mean and individual values. The degree of inhibition (%) was obtained by measuring the tail current amplitude before and after drug superfusion (the difference current was normalized to control and multiplied by 100 to obtain the percent of inhibition). […] The concentration-response relationship of each compound was constructed from the percentage reductions of current amplitude by sequential concentrations. β2-adrenergic receptor CHO expressing cells were used for the receptor inhibition assay as described. The results are expressed as a percent of inhibition of control specific binding (100 - (measured specific binding/control specific binding) × 100)) obtained in the presence of the test compounds. The specific ligand binding to the receptors is defined as the difference between the total binding and the nonspecific binding determined in the presence of an excess of unlabelled ligand. All the in-vivo experiments were carried out at the Regina Elena Cancer Institute.
Inhibition of receptor was reported as inhibition of control specific binding (100 - (measured specific binding/control specific binding) × 100) obtained in the presence of the test compounds.

[2] = tested on: h-Tel 5'-d[AGGG(TTAGGG)3]-3' (DNA, G4) AGGGTTAGGGTTAGGGTTAGGG; experiment: CD melting at 290 nm; conditions: 110 mM K+ (100 mM KCl, potassium phosphate), 10 mM potassium phosphate, pH 7.0, 4 μM DNA, 3.5 mol equiv. ligand
[3] = biological target: T2, hERG (human Ether-a-go-go Related Gene) tail current (Homo sapiens, UniProt Q12809); experiment: hERG tail current inhibition, patch clamp assay; format: cell-based
T2 construct: expressed in transfected cells; host or cells: HEK293
T2 sequence (Q12809 whole entry): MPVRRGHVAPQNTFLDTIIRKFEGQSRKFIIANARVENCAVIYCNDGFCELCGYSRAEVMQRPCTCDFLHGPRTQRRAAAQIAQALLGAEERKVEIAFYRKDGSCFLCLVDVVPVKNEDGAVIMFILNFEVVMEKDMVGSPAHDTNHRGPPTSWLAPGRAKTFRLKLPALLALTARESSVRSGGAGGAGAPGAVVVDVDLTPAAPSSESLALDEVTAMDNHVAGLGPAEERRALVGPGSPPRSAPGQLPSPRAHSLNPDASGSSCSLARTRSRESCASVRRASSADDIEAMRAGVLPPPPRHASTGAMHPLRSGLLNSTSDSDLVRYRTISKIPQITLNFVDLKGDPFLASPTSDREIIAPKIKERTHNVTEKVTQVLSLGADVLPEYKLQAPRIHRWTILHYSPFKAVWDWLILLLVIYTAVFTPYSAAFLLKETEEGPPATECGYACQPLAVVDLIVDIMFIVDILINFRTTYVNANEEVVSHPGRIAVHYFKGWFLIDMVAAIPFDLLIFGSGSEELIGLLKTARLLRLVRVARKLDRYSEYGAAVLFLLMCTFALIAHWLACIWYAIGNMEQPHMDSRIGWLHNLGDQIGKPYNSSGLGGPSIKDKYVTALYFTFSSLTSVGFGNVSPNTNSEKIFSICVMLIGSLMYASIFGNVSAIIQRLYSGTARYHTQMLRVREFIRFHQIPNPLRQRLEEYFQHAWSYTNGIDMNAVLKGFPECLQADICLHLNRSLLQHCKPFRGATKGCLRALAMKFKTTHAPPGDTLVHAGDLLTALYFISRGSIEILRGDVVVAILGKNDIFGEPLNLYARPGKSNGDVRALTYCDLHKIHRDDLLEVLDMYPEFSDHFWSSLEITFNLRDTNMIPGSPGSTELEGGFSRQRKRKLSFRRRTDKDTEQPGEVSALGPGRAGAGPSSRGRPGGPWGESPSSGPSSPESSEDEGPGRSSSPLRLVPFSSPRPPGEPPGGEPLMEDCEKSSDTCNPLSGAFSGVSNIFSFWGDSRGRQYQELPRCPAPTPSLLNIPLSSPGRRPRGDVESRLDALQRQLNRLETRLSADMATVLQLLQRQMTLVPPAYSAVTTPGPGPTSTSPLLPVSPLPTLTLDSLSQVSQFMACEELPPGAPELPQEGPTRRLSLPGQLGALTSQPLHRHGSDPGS
Experimental: as §1, with “Institute. All procedures involving animals and care were performed in compliance with our institutional animal care guidelines and with international directives (directive 2010/63/EU of the European parliament and of the council; Guide for the Care and Use of Laboratory Animals, United States National Research Council, 2011).” for “Institute.”

hERG = biological target: T3, hERG (Homo sapiens, UniProt Q12809); experiment: hERG tail current inhibition, patch clamp assay; format: cell-based; conditions: human, HEK293 cells (hERG study), 10 μM, HEK293 cells, read-out: hERG % inhib. (10 μM)
T3 construct: expressed in transfected cells; host or cells: HEK293
T3 sequence (Q12809 whole entry): as above
Experimental: as §1, with “Institute. All procedures involving animals and care were performed in compliance with our institutional animal care guidelines and with international directives (directive 2010/63/EU of the European parliament and of the council; Guide for the Care and Use of Laboratory Animals, United States National Research Council, 2011).” for “Institute.”

BJ-EHLT fibroblasts = experiment: Proliferation assay, transformed fibroblasts; format: cell-based, human; conditions: 0.5 μM, culture day 2 to 8
Experimental: BJ fibroblasts expressing hTERT (BJ-hTERT) or hTERT and SV40 early region (BJ-EHLT), were obtained as previously reported. Cells were grown in Dulbecco Modified Eagle Medium (D-MEM, Invitrogen Carlsbad, CA, USA) supplemented with 10% fetal calf serum, 2 mM L-glutamin and antibiotics.
5 × 10^4 cells were seeded in 60-mm Petri plates (Nunc, MasciaBrunelli, Milano, Italy) and 24 h after plating, 0.5 μM of freshly dissolved compound was added to the culture medium. Cell counts (Coulter Counter, Kontron Instruments, Milano, Italy) and viability (trypan blue dye exclusion) were determined daily, from day 2 to day 8 of culture.

[4] = tested on: h-Tel 5'-d[AGGG(TTAGGG)3]-3' (DNA, G4) AGGGTTAGGGTTAGGGTTAGGG; experiment: CD spectroscopy, induced anti-parallel structure; conditions: no significant K+; 298 K; 3.5 molar equivalents of ligand; band at 290 nm emerges
[5] = tested on: h-Tel quadruplex DNA 5′-d[AGGG(TTAGGG)3]-3′; experiment: Surface plasmon resonance, quadruplex DNA; conditions: for Surface plasmon resonance K, Quadruplex (Q) DNA: 10 mM HEPES, 200 mM KCl, 3 mM EDTA, 0.01% P20, pH 7.4, equilibrium binding constant
From the text: Oligonucleotides 5′-biotin-d[AG3(T2AG3)3] quadruplex and 5′-biotin-CGA3T3C(CT)2GA3T3CG were purchased from Midland Certified Reagent Company (Midland, TX).
In the present work these measurements were repeated comparing ligand binding to the same h-Tel sequence but with a different duplex sequence 5′-d[CGA3T3C(CT)2GA3T3CG]-3′ as comparator.

T1 sequence (P07550 whole entry): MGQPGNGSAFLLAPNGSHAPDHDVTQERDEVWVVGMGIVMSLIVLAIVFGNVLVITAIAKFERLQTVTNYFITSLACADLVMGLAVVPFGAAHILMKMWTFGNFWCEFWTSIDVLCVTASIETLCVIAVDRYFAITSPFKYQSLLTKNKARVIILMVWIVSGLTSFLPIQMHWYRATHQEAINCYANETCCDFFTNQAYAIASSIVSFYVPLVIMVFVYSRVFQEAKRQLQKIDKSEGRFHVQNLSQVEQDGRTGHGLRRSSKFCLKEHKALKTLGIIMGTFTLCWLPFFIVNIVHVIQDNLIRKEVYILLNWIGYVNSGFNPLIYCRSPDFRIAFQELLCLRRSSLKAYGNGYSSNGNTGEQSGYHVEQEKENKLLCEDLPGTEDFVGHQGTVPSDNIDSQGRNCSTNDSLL

B2 adrenergic % inhib. (10 μM) ([1]; 10 μM, inhibition of control specific binding, CHO cells)	∆Tm ([2]; Tm 85 ± 3)	Structure (SMILES)	inhibition at 1 µM ([1]; 1 μM, Cerep ExpresSProfile screen, read-out: % inhibition of ligand binding, β2 adrenergic receptor)	inhibition at 10 µM ([1]; 10 μM, inhibition of control specific binding, CHO cells, read-out: B2 adrenergic % inhib. (10 μM))	∆Tm ([2]; Tm 86 ± 3)	pIC50 [3]	inhibition at 10 µM (hERG)	day of maximum effect on cell proliferation (BJ-EHLT fibroblasts)	binding [4]	Surface plasmon resonance K, Quadruplex (Q) DNA [5]	Ratio Q/D (SPR) ([5]; quadruplex K / duplex K)
		Cc1cc2c3c([n+](C)c4ccc(F)cc4c3c1)-c1cc(F)ccc1N2C [Compound 1, 3,11-Difluoro-6,8,13-trimethyl-8H-quino[4,3,2-kl]acridinium metho-sulfate]	> 95%	100%	16 °C	6.70	100%	6 days	yes	8.3e+06 M⁻¹	13.8
29%	15 °C	CC(=O)Nc1ccc2c(c1)c1cccc3c1c([n+]2C)-c1ccccc1N3C [Compound 3, 3-acetylamino-8,13-dimethyl-8H-quino[4,3,2-kl]-acridinium iodide]				4.74	21%	seven	yes	8e+06 M⁻¹	
